The source of these data is patent US12414560B2, “Pesticidal compositions and related methods” (CJB Applied Technologies LLC, priority 2017, dated 2025).

For test [1], the system named is resistant strain of Didymella sp. (gummy stem rot). Put plainly: Petri dish test (zone of inhibition), radial growth, resistant strain of Didymella sp. It counts as cell-based. The procedure: (§1) Petri dish tests (i.e., zone of inhibition tests) were conducted to compare the efficacy of azoxystrobin against both sensitive/susceptible and resistant strains of Didymella sp. (gummy stem rot).
Petri dish tests (i.e., zone of inhibition tests) were conducted to compare four rates of three adjuvant compositions (ADJ1, AJD2, and ADJ3 (N-methylpyrrolidone)) on sensitive and resistant strains of Didymella at a fixed treatment rate with a FRAC Group 11 fungicide, azoxystrobin.
Petri dish tests (i.e., zone of inhibition tests) were conducted to compare the efficacy of azoxystrobin (a strobilurin, quinone outside inhibitor (QOI), and member of Fungicide Resistance Action Committee (FRAC) Group 11) against resistant strains of Didymella sp. (gummy stem rot). Various organic solvents (adjuvants) were utilized at varying rates (6 fluid ounces/acre or 3 ounces/acre).

Test [2] deals with sensitive/susceptible strain of Didymella sp. (gummy stem rot). Put plainly: Petri dish test (zone of inhibition), radial growth, sensitive/susceptible strain of Didymella sp. Format: cell-based. The following applies: for radial growth, 18 hours / radial growth, 24 hours / radial growth, 36 hours / radial growth, 48 hours / radial growth, 12 hours: sensitive strain. The procedure:
as §1
Petri dish tests (i.e., zone of inhibition tests) were conducted to compare four rates of three adjuvant compositions (ADJ1, AJD2, and ADJ3 (N-methylpyrrolidone)) on sensitive and resistant strains of Didymella at a fixed treatment rate with a FRAC Group 11 fungicide, azoxystrobin. […]

For test [3], the system named is natural strains of Didymella. Put plainly: Watermelon Didymella (Gummy Stem Rot) field test, natural infection, disease severity rating. Format: in vivo, Didymella on watermelon plants. The procedure:
Watermelon plants were grown in normal field conditions subject to infection by natural strains of Didymella. The watermelons where then treated with: (a) a FRAC Group 11 fungicide, azoxystrobin alone; (b) ADJ1 alone; (c) azoxystrobin plus ADJ2; (d) azoxystrobin plus a typical commercial adjuvant (commercially available as Ad-Spray™); and (e) azoxystrobin plus chlorothalonil and commercial adjuvant. Disease severity ratings were taken and illustrated improved disease control of natural strains with ADJ1 compared to treatment with azoxystrobin alone or azoxystrobin plus commercial adjuvant, and equivalent control to azoxystrobin plus chlorothalonil and commercial adjuvant.

Another test has as its system Morning Glory (MG). Put plainly: Herbicide burndown testing, Morning Glory. Further: test concentration or dose not given here. The conditions noted are these: in vivo. The procedure:
(§2) Burndown (BD) testing was conducted on Morning Glory (MG), Goosegrass (GG), Florida Beggarweed (FB) with an herbicide, Gramoxone® (paraquat—N,N′-dimethyl-4,4′-bipyridinium dichloride). Various amounts of Crop Oil Concentrate™ (COC) and an organic solvent adjuvant, Benzyl Acetate (BA), were utilized in conjunction with the herbicide. Crop Oil Concentrate™ (COC) is commonly used to enhance the deposition and spreading of herbicides on the leaf surface. The Crop Oil Concentrate™ (COC) included paraffinic petroleum oil, tall oil fatty acids and alkylphenol ethoxylates. The results are summarized in Table 20 and show a substantial increase in burndown rate when the organic solvent adjuvant is combined with an herbicide. The results also show a substantial increase in burndown rate compared to the combination of herbicide and Crop Oil Concentrate™ (COC).

Another test relates to Goosegrass (GG). Put plainly: Herbicide burndown testing, Goosegrass. Further: test concentration or dose not given here. The following applies: in vivo. The procedure: as §2
In test [4] the test system is resistant strains of Rhizoctonia solani (brown patch, stem rot, and/or root rot). Put plainly: Petri dish test (zone of inhibition), resistant strains of Rhizoctonia solani. Format: cell-based. The conditions noted are these: organic solvent composition (where used) 6 fluid ounces/acre; for % Reduction in Radial Growth: 48 hours, vs untreated. The procedure:
Petri dish tests (i.e., zone of inhibition tests) were conducted to compare the efficacy of tebuconazole (demethylation inhibitor, […], a triazole, and member of Fungicide Resistance Action Committee (FRAC) Group 3) against resistant strains of Rhizoctonia solani (brown patch, stem rot, and/or root rot). Various organic solvents (adjuvants) were utilized at 6 fluid ounces/acre and compared with just the active ingredient alone. The results are summarized in Table 19 and show the organic solvents provide a substantial resistant strain growth reduction compared to a FRAC Group 3 active ingredient utilized alone.

Test [5] relates to natural strains of Cercospora (known to be resistant to azoxystrobin). Put plainly: Soybean Cercospora (Frog Eye Leaf Spot) field test, severity ratings. Format: in vivo, Cercospora on soybean plants. The following applies: azoxystrobin 0.5×. The protocol: Soybean plants were grown in normal field conditions subject to infection by natural strains of Cercospora (known to be resistant to azoxystrobin) then treated with: (a) a FRAC Group 11 fungicide, azoxystrobin alone; (b) azoxystrobin plus ADJ1; (c) azoxystrobin plus ADJ2; (d) azoxystrobin plus a typical commercial adjuvant (commercially available as Preference®). Disease severity ratings were taken and illustrated improved disease control with ADJ1 and ADJ2 compared to treatment with azoxystrobin alone or azoxystrobin plus commercial adjuvant. Duncan Multiple Range treatment of the data (indicated by “a,” “b,” “c,”, etc.) confirmed statistically valid different between the treatment results.

Test [6] deals with azoxystrobin resistant strain of Didymella. Put plainly: Watermelon Didamella (Gummy Stem Rot) field test, inoculated plants, disease severity rating. It counts as in vivo, Didymella on watermelon plants. Also on record: key: based on counts of active fungal infection sites on leaves. The conditions noted are these: adjuvant rate 6 fl oz/acre. The protocol:
Watermelon plants were inoculated with an azoxystrobin resistant strain of Didymella. The watermelon plants were then treated with: (a) a FRAC Group 11 fungicide, azoxystrobin alone; (b) azoxystrobin plus ADJ1; (c) azoxystrobin plus ADJ2; (d) azoxystrobin plus a typical commercial adjuvant (commercially available as Ad-Spray™); and (e) azoxystrobin plus chlorothalonil and commercial adjuvant (commercially available as Ad-Spray™). Disease severity ratings were taken and illustrated improved disease control of resistant strain with ADJ1 and ADJ2 compared to treatment with azoxystrobin alone, azoxystrobin plus commercial adjuvant, and azoxystrobin plus chlorothalonil and commercial adjuvant, especially at lower rates of azoxystrobin. Severity rating were based on multiple counts of active fungal infection sites on the leaves of the plants.

The mark [7] stands for this setting: ADJ1 0.25× (adjuvant rate 4 fl oz/acre), Quadris 0.
Where [8] appears, read: adjuvant 4 fl oz/acre (ADJ1 0.5×), Quadris 0.
Where [9] appears, read: adjuvant 6 fl oz/acre ([…]), Quadris 0.
Setting [10] is: adjuvant 8 fl oz/acre (1×), Quadris 0.
The mark [11] stands for this setting: azoxystrobin 0, additive alone (additive rate 0).
Setting [12] is: adjuvant 2 fl oz/acre (0.25×), Quadris 0.
[13] abbreviates: adjuvant 4 fl oz/acre (0.5×), Quadris 0.
The mark [14] stands for this setting: adjuvant 8 fl oz/acre (ADJ1 1×), Quadris 0.
Setting [15] is: azoxystrobin 0, adjuvant only 6 fl oz/acre.
Where [16] appears, read: azoxystrobin 5.5 fl oz/acre, no additive.
[17] abbreviates: azoxystrobin 11 fl oz/acre, no additive.
Setting [18] is: azoxystrobin 16 fl oz/acre, no additive.
Where [19] appears, read: azoxystrobin 22 fl oz/acre, no additive.
Setting [20] is: azoxystrobin application rate 5.5.
The mark [21] stands for this setting: azoxystrobin application rate 11.
Where [22] appears, read: azoxystrobin application rate 22.
Setting [23] is: azoxystrobin 5.5 fl oz/acre, adjuvant rate 6 fl oz/acre.
[24] abbreviates: azoxystrobin 11 fl oz/acre, adjuvant rate 6 fl oz/acre.

“And” between values parts separate entries of the source, which are not always exact repeats. Equal entries are not always repeated.

`CC(=O)OCc1ccccc1` [ADJ1, benzyl acetate]: the “radial growth, 18 hours” value in test [1] (setting [7]) is recorded as 20.6 cm; in test [1] (setting [8]), 22.6 cm; in test [1] (setting [9]) it was 18.9 cm; in test [1] (setting [10]), 16.7 cm; in test [2] (setting [12]) it was 19.9 cm; in test [2] (setting [13]) it was 17 cm. Moreover, the “radial growth, 18 hours” value in test [2] (setting [9]) and in test [2] (setting [14]) was 15.7 cm each time. Also, the “radial growth, 24 hours” value in test [1] (setting [7]) is recorded as 30.2 cm; in test [1] (setting [8]), 28.5 cm; in test [1] (setting [9]), 23.4 cm; in test [1] (setting [10]) it was 10.9 cm; in test [1] (setting [11]) it was 30 cm; in test [2] (setting [12]), 24.9 cm. The “radial growth, 24 hours” value in test [2] (setting [13]) was found to be 23.7 cm; in test [2] (setting [9]) it was 26.1 cm; in test [2] (setting [14]), 21.3 cm; in test [2] (setting [11]), 41.1 cm. Further, the “radial growth, 48 hours” value in test [1] (setting [7]) is 51.2 cm; in test [1] (setting [8]) it was 53.9 cm; in test [1] (setting [9]), 45.9 cm; in test [1] (setting [10]) it was 44.4 cm; in test [2] (setting [12]), 47.9 cm; in test [2] (setting [13]), 46 cm. Also, the “radial growth, 48 hours” value in test [2] (setting [9]) came out at 48.1 cm; in test [2] (setting [14]), 50.1 cm. Moreover, the “radial growth, 12 hours” value in test [1] (setting [11]) came out at 25 cm; in test [2] (setting [11]), 24 cm. In test [1] (text of Example 2), the “growth reduction, in words” value was “some efficacy but not at a commercial level control”. For the same compound, the “radial growth, 36 hours” value in test [2] (setting [12]) was 39.3 cm; in test [2] (setting [13]), 32.3 cm; in test [2] (setting [9]) it was 38.8 cm; in test [2] (setting [14]), 40.6 cm; in test [2] (setting [11]), 54 cm. Further, in test [2] (susceptible strain, equivalent of 2 oz/acre of ADJ1), the “control compared to azoxystrobin alone, in words” value is recorded as “comparable control”. Besides, the “disease reduction, in words” value in test [3] (ADJ1 only) is “Some disease reduction”. The “disease severity, Fourth Week Rating” value in test [3] (setting [15]) is 48.7. Besides, the “disease severity, One Week Rating” value in test [3] (setting [15]) is listed as 1.1. Moreover, in test [3] (setting [15]), the “disease severity, Third Week Rating” value is on record as 38.9. For the same compound, the “disease severity, Two Week Rating” value in test [3] (setting [15]) was 8.
Turning to `CN1CCCC1=O` [ADJ3, N-methylpyrrolidone], in test [1] (setting [11]), the “radial growth, 12 hours” value is on record as 27 cm and the “radial growth, 24 hours” value turned out to be 39 cm. Moreover, in test [2] (setting [11]), the “radial growth, 12 hours” value came to 22.8 cm; the “radial growth, 24 hours” value worked out at 41 cm; the “radial growth, 36 hours” value amounted to 54.1 cm.
As to `C[n+]1ccc(-c2cc[n+](C)cc2)cc1` [Paraquat], in the test with Morning Glory (MG), the “BD (MG) (%)” value was 51% and 50% and 81%. Further, in the test with Goosegrass (GG), the “BD (GG) (%)” value was 72% and 60% and 100%.
As to `CC(C)(C)C(O)(CCc1ccc(Cl)cc1)Cn1cncn1` (stereo not shown) [Tebuconazole], the “Radial growth (cm) at 48 hours” value came to 10.72 cm in test [4] (Tebuconazole 2 oz/acre) and 7.8 cm in test [4] (Tebuconazole 4 oz/acre). For the same compound, the “% Reduction in Radial Growth” value in test [4] (Tebuconazole 2 oz/acre) is 32%; in test [4] (Tebuconazole 4 oz/acre) it was 50%.
For `CO/C=C(/C(=O)OC)c1ccccc1Oc1cc(Oc2ccccc2C#N)ncn1` [azoxystrobin], the “radial growth, 12 hours” value in test [1] (setting [16]) stood at 31 cm; in test [1] (setting [17]), 30 cm; in test [1] (setting [18]), 29 cm; in test [1] (setting [19]), 22 cm; in test [2] (setting [16]), 15.3 cm; in test [2] (setting [17]) it was 12.5 cm. Further, the “radial growth, 12 hours” value in test [2] (setting [18]) amounted to 13.4 cm; in test [2] (setting [19]), 15.8 cm. Besides, the “radial growth, 24 hours” value in test [1] (setting [16]) is recorded as 48 cm; in test [1] (setting [17]), 48 cm; in test [1] (setting [18]), 47 cm; in test [1] (setting [19]) it was 28 cm; in test [2] (setting [16]), 24.9 cm; in test [2] (setting [17]), 16.9 cm. The results for the “radial growth, 24 hours” value in test [2] (setting [18]) and in test [2] (setting [19]) were 20 cm and 22.9 cm, respectively. The “radial growth, 36 hours” value in test [2] (setting [16]) is reported as 34.3 cm; in test [2] (setting [17]), 23.6 cm; in test [2] (setting [18]), 28 cm; in test [2] (setting [19]) it was 31.9 cm. Besides, the “Severity Ratings, August 31/Upper leaf” value in test [5] is recorded as 10.3. Further, in test [5], the “Severity Ratings, September 7/bottom leaf” value was found to be 35.5. Moreover, the “Severity Ratings, September 7/higher Leaf” value in test [5] is 16.3. Also, in test [5], the “Severity Ratings, September 7/middle leaf” value came out at 3.2. Further, the “Severity Ratings, September 13/bottom leaf” value in test [5] came out at 18. The “Severity Ratings, September 20/higher leaf” value in test [5] was 11.3. The “disease severity, Fourth Week Rating” value is 82.8 in test [6] (setting [20]); 65.7 in test [6] (setting [21]); 16.3 in test [6] (setting [22]); 80.8 in test [3] (setting [23]); 76.8 in test [3] (setting [24]). In addition, the “disease severity, One Week Rating” value came out at 9.2 in test [6] (setting [20]); 13.3 in test [6] (setting [21]); 1.1 in test [6] (setting [22]); 2.1 in test [3] (setting [23]); 1.1 in test [3] (setting [24]). The “disease severity, Third Week Rating” value in test [6] (setting [20]) is listed as 63.3; in test [6] (setting [21]), 42; in test [6] (setting [22]), 4.8; in test [3] (setting [23]), 59.4; in test [3] (setting [24]) it was 49.5. In addition, the “disease severity, Two Week Rating” value is reported as 16.9 in test [6] (setting [20]); 16.7 in test [6] (setting [21]); 0.2 in test [6] (setting [22]); 6.6 in test [3] (setting [23]); 0 in test [3] (setting [24]).
